According to patent publication US10213415B2, “Compounds as opioid receptor modulators” (JANSSEN PHARMACEUTICA NV, priority 2004, dated 2019):

Legend:
human mu opioid receptor = target: T1, human mu opioid receptor (Homo sapiens, UniProt P35372); test: Human Mu Opioid Receptor Binding Assay (CHO membranes, 3H-Damgo); conditions: read-out: hKi μ
T1 construct: purchased Perkin Elmer RBHOMM400UA; host or cells: Chinese Hamster Ovary cells (recombinant expression)
Experimental: Membranes from Chinese Hamster Ovary cells expressing the human […] opioid receptor (Perkin Elmer #RBHOMM400UA) are homogenized in assay buffer (50 mM Tris, pH 7.5 with 5 mM MgCl2) using a glass tissue grinder, Teflon pestle and a Steadfast Stirrer (Fisher Scientific). The concentration of membranes is adjusted to 300 μg/mL in assay buffer and 100 μL is dispensed into each well of the assay plate, a 96 well round bottom polypropylene plate. Compounds to be tested are solubilized in DMSO (Pierce), 10 mM, then diluted in assay buffer to 6× the desired final concentration. The ligand, ^3H-Damgo (Perkin Elmer #NET-902) is also diluted in assay buffer to 3.6 nM. In a second 96 well round bottom polypropylene plate, known as the premix plate, 60 μL of the 6× compound is combined with 60 μL of 3.6 nM ^3H-Damgo. From this premix plate 50 μL is transferred to the assay plate containing the membranes, in duplicate. The assay plate is incubated for 2 h at room temperature. A GF/C 96 well filter plate (Perkin Elmer #6005174) is pretreated with 0.3% polyethylenimine for 30 min. The contents of the assay plate are filtered through the filter plate using a Packard Filtermate Harvester, and washed 3 times with 0.9% saline that is 4° C. The filter plate is dried, the underside sealed, and 30 μL Microscint20 (Packard #6013621) added to each well. A Topcount-NXT Microplate Scintillation Counter (Packard) is used to measure emitted energies in the range of 2.9 to 35 KeV. […] Nonspecific binding is determined in the presence of 1 μM unlabelled Damgo (Tocris #1171).

[1] = target: T2, mu opioid receptor (CHO-hMOR cell membranes) (Homo sapiens, UniProt P35372); test: Mu Opioid Receptor Functional Assay: [35S]GTPγS Binding in CHO-hMOR Cell Membranes, Versions 1 and 2; format: biochemical; conditions: for MOR GTP binding assay_v2 (% I): version 2, % inhibition of agonist-stimulated GTPγS binding; for EC50: version 2, read-out: MOR GTP binding assay v2 EC50
T2 construct: purchased Receptor Biology, Inc. (Baltimore, Md.); host or cells: CHO cells (recombinant expression)
Experimental: CHO-hMOR cell membranes were purchased from Receptor Biology, Inc. (Baltimore, Md.). About 10 mg/ml of membrane protein was suspended in 10 mM TRIS-HCl pH 7.2, 2 mM EDTA, 10% sucrose, and the suspension kept on ice. One ml of membranes was added to 15 ml cold binding assay buffer containing 50 mM HEPES, pH 7.6, 5 mM MgCl2, 100 mM NaCl, 1 mM DTT and 1 mM EDTA. The membrane suspension was homogenized with a Polytron and centrifuged at 3,000 rpm for 10 min. The supernatant was then centrifuged at 18,000 rpm for 20 min. The pellet was resuspended in 10 ml assay buffer with a Polytron.
The membranes were preincubated with wheat germ agglutinin coated SPA beads (Amersham) at 25° C. for 45 min in the assay buffer. The SPA bead (5 mg/ml) coupled membranes (10 μg/ml) were then incubated with 0.5 nM [^35S]GTPγS in the assay buffer. […] A range of concentrations of receptor agonists was used to stimulate [^35S]GTPγS binding. Both basal and non-specific binding was tested in the absence of agonist; non-specific binding determination included 10 μM unlabeled GTPγS.
Compounds were tested for function as antagonists by evaluating their potential to inhibit agonist-stimulated GTPγS binding. Radioactivity was quantified on a Packard TopCount. The following parameters were calculated:
[formula] % Inhibition=(% stimulation by 1 μM SNC80−% stimulation by 1 μM SNC80 in presence of test compound)×100/(% Stimulation by 1 μM SNC80−100)
EC50 values were calculated using GraphPad Prism.

T1 sequence (P35372 whole entry): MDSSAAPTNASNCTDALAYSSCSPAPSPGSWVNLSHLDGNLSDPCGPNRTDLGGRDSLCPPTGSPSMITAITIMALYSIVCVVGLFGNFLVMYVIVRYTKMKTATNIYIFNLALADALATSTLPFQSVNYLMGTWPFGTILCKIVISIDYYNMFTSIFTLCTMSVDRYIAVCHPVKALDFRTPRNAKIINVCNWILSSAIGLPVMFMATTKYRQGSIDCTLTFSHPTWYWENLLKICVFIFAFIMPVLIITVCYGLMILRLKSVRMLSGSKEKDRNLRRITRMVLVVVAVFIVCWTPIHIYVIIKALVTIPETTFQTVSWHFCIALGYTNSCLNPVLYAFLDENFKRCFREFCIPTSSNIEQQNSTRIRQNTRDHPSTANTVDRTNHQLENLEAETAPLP
T2 sequence (P35372 whole entry): as above

SMILES | Ki (human mu opioid receptor) | MOR GTP binding assay_v2 (% I) [1] | EC50 [1]
COc1ccc(CN(C(=O)[C@@H](N)Cc2c(C)cc(O)cc2C)[C@@H](C)c2nc(-c3ccccc3)c[nH]2)c(OC)c1 [Cpd 34] | 19 nM | – | –
Cc1cc(O)cc(C)c1C[C@H](N)C(=O)N(Cc1ccc(OCc2ccccc2)c(OCc2ccccc2)c1)[C@@H](C)c1nc(-c2ccccc2)c[nH]1 [Cpd 30] | 34 nM | – | –
Cc1cc(O)cc(C)c1C[C@H](N)C(=O)N(Cc1nc(-c2cc(N)cc(C(=O)O)c2)c(C)[nH]1)C(C)C [Cpd 47] | 22 nM | – | –
Cc1cc(O)cc(C)c1C[C@H](N)C(=O)N(Cc1ccc(O)c(O)c1)[C@@H](C)c1nc(-c2ccccc2)c[nH]1 [Cpd 15] | 285 nM | – | –
Cc1[nH]c(CN(C(=O)[C@@H](N)Cc2ccc(O)cc2)C(C)C)nc1-c1cncnc1 [Cpd 132] | 166 nM | – | –
COC(=O)c1cccc(CN(C(=O)[C@@H](N)Cc2c(C)cc(C(N)=O)cc2C)[C@@H](C)c2nc(-c3cccc4ccccc34)c[nH]2)c1 [Cpd 10] | 15.5 nM | – | –
Cc1cc(O)cc(C)c1C[C@H](N)C(=O)N(Cc1nc(-c2ccc(CCC(=O)O)cc2)c(C)[nH]1)C(C)C [Cpd 46] | 35 nM | – | –
COc1cccc(CN(C(=O)[C@@H](N)Cc2c(C)cc(O)cc2C)[C@@H](C)c2nc(-c3ccccc3)c[nH]2)c1 [Cpd 33] | 6.9 nM | – | –
Cc1cc(O)cc(C)c1C[C@H](N)C(=O)N(Cc1nc(-c2cccc(NS(C)(=O)=O)c2)c(C)[nH]1)C(C)C [Cpd 45] | 1.2 nM | – | –
COc1ccc(CN(C(=O)[C@@H](N)Cc2c(C)cc(C(N)=O)cc2C)[C@@H](C)c2nc(-c3ccccc3C#N)c[nH]2)cc1OC [Cpd 27] | 30 nM | – | –
Cc1cc(O)cc(C)c1C[C@H](N)C(=O)N(Cc1nc(-c2ccccc2)c[nH]1)C(c1ccccc1)c1ccccc1 [Cpd 40] | 152 nM | – | –
Cc1cc(C(N)=O)cc(C)c1C[C@H](N)C(=O)N(Cc1ccccc1Br)[C@@H](C)c1nc(-c2ccccc2)c[nH]1 [Cpd 3] | 13 nM | – | –
COC(=O)c1ccnc(CN(C(=O)[C@@H](N)Cc2c(C)cc(C(N)=O)cc2C)[C@@H](C)c2nc(-c3ccccc3)c[nH]2)c1 [Cpd 312] | – | 35.00% | 58.7 nM
Cc1cc(C(N)=O)cc(C)c1C[C@H](N)C(=O)N(Cc1ccccc1C#N)[C@@H](C)c1nc(-c2ccccc2)c[nH]1 [Cpd 2] | 2.9 nM | – | –
Cc1cc(C(N)=O)cc(C)c1C[C@H](N)C(=O)N(Cc1ccccc1)[C@H](C)c1nc(-c2ccccc2)c[nH]1 [Cpd 113] | 16 nM | – | –
Cc1cc(C(=O)O)cc(C)c1C[C@H](N)C(=O)N(Cc1ccc(C(=O)O)cc1)[C@@H](C)c1nc(-c2ccccc2)c[nH]1 [Cpd 49] | 48 nM | – | –
Cc1cc(O)cc(C)c1C[C@H](N)C(=O)N(Cc1nc(-c2ccc(C#N)cc2)c(C)[nH]1)C(C)C [Cpd 41] | 1.6 nM | – | –
COc1ccc(CN(C(=O)[C@@H](N)Cc2c(C)cc(O)cc2C)[C@@H](C)c2nc(-c3ccccc3)c[nH]2)cc1 [Cpd 32] | 6.8 nM | – | –
COc1cc(Br)c(CN(C(=O)[C@@H](N)Cc2c(C)cc(C(N)=O)cc2C)[C@@H](C)c2nc(-c3ccccc3)c[nH]2)cc1OC [Cpd 229] | 12 nM | – | –
Cc1cc(O)cc(C)c1C[C@H](N)C(=O)N(Cc1nc(-c2ccc(CO)cc2)c(C)[nH]1)C(C)C [Cpd 39] | 0.9 nM | – | –
COc1ccc(CN(C(=O)[C@@H](N)Cc2c(C)cc(C(N)=O)cc2C)[C@@H](C)c2nc(-c3cccc(C#N)c3)c[nH]2)cc1OC [Cpd 24] | 9.3 nM | – | –
COc1ccc(CN(Cc2nc(-c3ccccc3)c[nH]2)C(=O)[C@@H](N)Cc2c(C)cc(O)cc2C)cc1OC [Cpd 35] | 2.8 nM | – | –
COc1ccc(CN(C(=O)[C@@H](N)Cc2c(C)cc(O)cc2C)[C@H](COCc2ccccc2)c2nc(-c3ccccc3)c[nH]2)cc1OC [Cpd 22] | ~200 nM | – | –

SMILES | Ki (human mu opioid receptor) | MOR GTP binding assay_v2 (% I) [1] | EC50 [1]
Cc1cc(C(N)=O)cc(C)c1C[C@H](N)C(=O)N(Cc1ccccc1)[C@@H](C)c1nc(-c2ccc(C(F)(F)F)cc2)c[nH]1 [Cpd 42] | 5.8 nM | – | –
CC(C)[C@@H](c1nc(-c2ccccc2)c[nH]1)N(C(=O)[C@@H](N)Cc1cccc(C(N)=O)c1)C(C)C [Cpd 137] | 445 nM | – | –
COc1ccc(CN(C(=O)[C@@H](N)Cc2c(C)cc(C(N)=O)cc2C)[C@@H](C)c2nc(-c3cccc(C(N)=O)c3)c[nH]2)cc1OC [Cpd 23] | 34.3 nM | – | –
COC(=O)N[C@@H](Cc1c(C)cc(C(N)=O)cc1C)C(=O)N(Cc1ccc(OC)c(C(=O)OC)c1)[C@@H](C)c1nc(-c2ccccc2)c[nH]1 [Cpd 310] | – | 51.00% | 3920 nM
Cc1cc(O)cc(C)c1C[C@H](N)C(=O)N(Cc1nc(C=Cc2ccccc2)c(C)[nH]1)C(C)C [Cpd 38] | 19 nM | – | –
COC(=O)c1cc(CN(C(=O)[C@@H](N)Cc2c(C)cc(O)cc2C)[C@@H](C)c2nc(-c3ccccc3)c[nH]2)ccc1OC [Cpd 268] | 5.79 nM | – | –
COc1ccc(CN(C(=O)[C@@H](N)Cc2c(C)cc(O)cc2C)[C@@H](COCc2ccccc2)c2nc(-c3ccccc3)c[nH]2)cc1OC [Cpd 21] | 37.6 nM | – | –
Cc1cc(O)cc(C)c1C[C@H](N)C(=O)N(CC(=O)O)Cc1nc(-c2ccccc2)c[nH]1 [Cpd 129] | 25.3 nM | – | –
COc1ccc(CN(C(=O)[C@@H](N)Cc2c(C)cc(C(N)=O)cc2C)[C@@H](C)c2nc(-c3ccccc3)c[nH]2)cc1-c1nnn(C(C)(C)C)n1 [Cpd 309] | – | 47.00% | 23 nM
COc1ccc(CN(C(=O)[C@@H](N)Cc2c(C)cc(C(N)=O)cc2C)[C@@H](C)c2nc(-c3cccc(Br)c3)c[nH]2)cc1OC [Cpd 19] | 18.2 nM | – | –
Cc1cc(C(N)=O)cc(C)c1C[C@H](N)C(=O)N(C1CCCCC1)[C@H](C)c1nc(-c2ccccc2)c[nH]1 [Cpd 128] | 58 nM | – | –
Cc1cc(C(N)=O)cc(C)c1C[C@H](N)C(=O)N(Cc1ccc(C(=O)O)cc1)[C@@H](C)c1nc(-c2cccc3ccccc23)c[nH]1 [Cpd 13] | 4.8 nM | – | –
Cc1cc(C(N)=O)cc(C)c1C[C@H](N)C(=O)N(Cc1ccnc(C(=O)O)c1)[C@@H](C)c1nc(-c2ccccc2)c[nH]1 [Cpd 316] | – | 76% | 24.1 nM
COc1ccc(CN(C(=O)[C@@H](N)Cc2c(C)cc(C(N)=O)cc2C)[C@@H](C)c2nc(-c3ccccc3C(N)=O)c[nH]2)cc1OC [Cpd 28] | 44 nM | – | –
C[C@@H](c1nc(Cc2ccccc2)c[nH]1)N(C)C(=O)[C@@H](N)Cc1ccc(O)cc1 [Cpd 204] | 7.7 nM | – | –
COC(=O)c1cc(CN(Cc2nc(-c3ccccc3)c[nH]2)C(=O)[C@@H](N)Cc2c(C)cc(C(N)=O)cc2C)ccc1OC [Cpd 7] | 6.8 nM | – | –
CN[C@@H](Cc1ccc(OCc2ccccc2)cc1)C(=O)N(Cc1ccc(OC)c(C(=O)O)c1)[C@@H](C)c1nc(-c2ccccc2)c[nH]1 [Cpd 274] | > 1000 nM | – | –
Cc1cc(O)cc(C)c1C[C@H](N)C(=O)N(Cc1nc(-c2ccc(OC(F)(F)F)cc2)c(C)[nH]1)C(C)C [Cpd 44] | 8.7 nM | – | –
Cc1cc(O)cc(C)c1C[C@H](N)C(=O)N(CC1CCNCC1)[C@@H](C)c1nc(-c2ccccc2)c[nH]1 [Cpd 16] | 16 nM | – | –
Cc1cc(O)cc(C)c1C[C@H](N)C(=O)N(Cc1nc(-c2cccc(OC(F)(F)F)c2)c(C)[nH]1)C(C)C [Cpd 43] | 6.9 nM | – | –
Cc1cc(O)cc(C)c1C[C@H](N)C(=O)N(Cc1nc(-c2ccc(C(=O)O)c(F)c2)c(C)[nH]1)C(C)C [Cpd 37] | 183 nM | – | –
COc1ccc(CN(C(=O)[C@@H](N)Cc2c(C)cc(C(N)=O)cc2C)[C@@H](C)c2nc(-c3ccccc3Br)c[nH]2)cc1OC [Cpd 26] | 17 nM | – | –
COC(=O)c1cc(CN(C(=O)[C@@H](N)Cc2ccccc2)[C@@H](C)c2nc(-c3ccccc3)c[nH]2)ccc1OC [Cpd 266] | 69 nM | – | –
